In patent publication US4338122A, “Biocidal 2-aryl-1,3-cyclopentanedione compounds and alkali metal and ammonium salts thereof” (Union Carbide Corporation, priority 1980, dated 1982):
Values after ≈ are worked out from the molar mass of the structure shown.

Experiments:
[1] = tested on: two-spotted mite (Tetranychus urticae (Koch)), adults and nymphal stages; assay: Mite Foliage Spray Test (adult miticidal); assay type: in vivo; design: key to Miticidal, Adult (control rating): A: Excellent Control; B: Partial Control; No Control; details: for Miticidal, Adult (control rating): Table I, mortality count four days after spraying; for LC50: Tetranychus urticae, foliar, Table II, read-out: Miticidal LD50, Adult (ppm required for a 50 percent kill of mites)
Protocol: (§1) Suspensions of the test compounds were prepared by dissolving one gram of compound in 50 milliliters of acetone in which had been dissolved 0.1 gram (10 percent of the weight of compound) of an alkylphenoxyethoxyethanol surfactant, as an emulsifying or dispersing agent. The resulting solution was mixed into 160 milliliters of water to give roughly 200 milliliters of a suspension containing the compound in finely divided form. The thus prepared stock suspension contained 0.5 percent by weight of compound. The test concentrations employed in the tests described herein below were obtained by diluting the stock suspension with water. The test procedures were as follows:
Adults and nymphal stages of the two-spotted mite (Tetranychus urticae (Koch)), reared on Tendergreen bean plants at 80°±5° F. and 50±5 percent relative humidity, were the test organisms. Infested leaves from a stock culture were placed on the primary leaves of two bean plants six to eight inches in height, growing in a two-and-a-half inch clay pot. 150-200 Mites, a sufficient number for testing, transferred from the excised leaves to the fresh plants in a period of twenty-four hours. Following the twenty-four hour transfer period, the excised leaves were removed from the infested plants. The test compounds were formulated by diluting the stock suspension with water to provide suspensions containing the desired amount of test compound per million parts of final formulation. The potted plants (one pot per compound) were placed on a revolving turntable and sprayed with 100-110 milliliters of test compound formulation by use of a DeVilbis spray gun set at 40 psi. air pressure. This application, which lasted 30 seconds, was sufficient to wet the plants to run-off. As a control, 100-110 milliliters of a water solution containing acetone and emulsifier in the same concentrations as the test compound formulation, but containing no test compound, were also sprayed on infested plants. The sprayed plants were held at 80°±5° F. and 50±5 percent relative humidity for four days, after which, a mortality count of motile forms was made on the leaves of the test plants. Any individual which was capable of locomotion upon prodding was considered living.
In these tests the pesticidal activity of the compounds against mites and mite eggs were rated as follows:
(§2) Tests were conducted in accordance with the procedures given at pages 32 to 37 supra. The results are expressed in the same manner as used in Table I, except with respect to miticidal activity. For mite adult and mite egg comparison purposes, results are given in parts per million (ppm) required for a 50 percent kill of mites or eggs, respectively.

Bean = assay: Post-emergent herbicidal test, bean; assay type: in vivo; design: key: 1: no perceptible injury; 2: intermediate degrees of injury based upon the number and extent to which leaves were injured; 3: intermediate degrees of injury based upon the number and extent to which leaves were injured; 4: intermediate degrees of injury based upon the number and extent to which leaves were injured; 5: the plant was dead; details: 2500 parts per million, after ten days
Protocol: as §1
(§3) Experiments were also conducted to determine the phytotoxicity of representative compositions with respect to healthy fresh plants. Solutions of the compounds were prepared as described above to provide a concentration of 2500 parts per million of the test compound. The test plants were sprayed in accordance with the procedure described above for the Mite Foliage Spray Test so as to deliver approximately 100 milliliters of test solutions to the leaves of each plant tested. The sprayed plants and controls were set aside for approximately one hour to allow the solutions to dry and were then placed in the greenhouse. After ten days the plants were visually inspected to determine the extent of foliage injury. A rating of 1 indicates no perceptible injury; 5 indicates the plant was dead and ratings of 2, 3 and 4 indicate intermediate degrees of injury based upon the number and extent to which leaves were injured.
as §2

Corn = assay: Post-emergent herbicidal test, corn; assay type: in vivo; design: key: 1: no perceptible injury; 2: intermediate degrees of injury based upon the number and extent to which leaves were injured; 3: intermediate degrees of injury based upon the number and extent to which leaves were injured; 4: intermediate degrees of injury based upon the number and extent to which leaves were injured; 5: the plant was dead; details: 2500 parts per million, after ten days
Protocol: as §1, §3, §2

Soybean = assay: Post-emergent herbicidal test, soybean; assay type: in vivo; design: key: 1: no perceptible injury; 2: intermediate degrees of injury based upon the number and extent to which leaves were injured; 3: intermediate degrees of injury based upon the number and extent to which leaves were injured; 4: intermediate degrees of injury based upon the number and extent to which leaves were injured; 5: the plant was dead; details: 2500 parts per million, after ten days
Protocol: as §1, §3, §2

Mustard = assay: Preliminary herbicide seed germination test (pre-emergent), mustard; assay type: in vivo, Brassica pincea var. foliosa (Florida broadleaf); design: key: 5: no seedling emerged; 4: few seedlings emerged and/or very severe stunting; 3: moderate reduction in stand and/or moderate stunting; 2: very slight reduction in stand and/or slight stunting; 1: no injury; seedlings appear no different with respect to stand or growth than untreated controls; details: ten to twelve days after application
Protocol: as §1
The following seeds were used in this test:
Mustard--Brassica pincea var. foliosa (Florida broadleaf)
Two soil-seed mixtures were prepared as follows:
Each of the above mixtures was rolled separately in 5 gallon containers for approximately one-half hour on ball mill to insure uniform mixing of seeds and soil. For each compound four 3-inch pots were filled with soil to within 11/2 inches of top of pots. To two of these pots were added 70 cc. of Mixture I. To the remaining 2 pots were added 70 cc. of Mixture II. The seed-soil mixture was tamped firmly, and the pots were removed to the green-house and watered lightly. About 2 hours after planting, 25 milliliters of the test formulation were added to one pot containing Mixture I and one pot containing Mixture II. An equal volume of a water solution containing acetone and an emulsifier in the same concentration as the herbicidal mixture but without the candidate herbicide was also added to each of the soil-seed mixtures. These pots are used as check or control units. The test compounds were formulated by diluting the stock suspension with water to obtain the desired concentration of the compound in parts per million of the final formulation. Each compound was tested at the same concentration. […] Ratings were made according to the following designations: […]

Row | SMILES | Miticidal, Adult (control rating) [1] | LC50 [1] [µg/mL] | Post-Emergent Herbicidal, Bean (injury rating) (Bean; Table I) | Post-Emergent Herbicidal, Bean (injury rating) (Bean; Table II) | Post-Emergent Herbicidal, Corn (injury rating) (Corn; Table I) | Post-Emergent Herbicidal, Corn (injury rating) (Corn; Table II) | Post-Emergent Herbicidal, Soybean (injury rating) (Soybean; Table I) | Post-Emergent Herbicidal, Soybean (injury rating) (Soybean; Table II) | Pre-emergent Herbicidal, Mustard (injury rating) (Mustard; Table I) | Pre-emergent Herbicidal, Mustard (injury rating) (Mustard; Table II)
1 | Cc1ccc(C2C(=O)C3CCCCC3C2=O)c(C)c1 (stereo not shown) [CH3 CH3 H (CH2)4, 2-(2',4'-dimethylphenyl)-4,5,6,7,8,9-hexahydro-1,3-indandione] | A | 7 (≈ 27.3 µM) | 1 | 1 | 2 | 2 | 5 | 1 | 5 | 5
2 | Cc1ccc(C2C(=O)CCC2=O)c(C)c1 [CH3 CH3 H H H, 2-(2',4'-dimethylphenyl)-1,3-cyclopentanedione] | A | 15 (≈ 74.2 µM) | 1 | 1 | 2 | 2 | 1 | 1 | 3 | 3
3 | Cc1ccc(C)c(C2C(=O)C3CCCCC3C2=O)c1 (stereo not shown) [CH3 H CH3 (CH2)4, 2-(2',5'-dimethylphenyl)-4,5,6,7,8,9-hexahydro-1,3-indandione] | A | 35 (≈ 137 µM) | 1 | 1 | 1 | 1 | 1 | 1 | 1 | 1
4 | Cc1ccc(C)c(C2C(=O)CC(C)C2=O)c1 (stereo not shown) [CH3 H CH3 CH3 H, 2-(2',5'-Dimethylphenyl)-4-methyl-1,3-cyclopentanedione] | A |  | 2 |  | 3 |  | 2 |  | 2 | 
5 | Cc1ccc(C)c(C2C(=O)CCC2=O)c1 [CH3 H CH3 H H] | A |  | 2 |  | 2 |  | 3 |  | 2 | 
6 | Cc1ccccc1C1C(=O)C2CCCCC2C1=O (stereo not shown) [CH3 H H (CH2)4, 2-(2'-Methylphenyl)-4,5,6,7,8,9-hexahydro-1,3 indandione] | A | 12 (≈ 49.5 µM) | 2 | 2 | 2 | 2 | 1 | 1 | 2 | 2
7 | Cc1ccccc1C1C(=O)CCC1=O [CH3 H H H H, 2-(2'-methylphenyl)-1,3-cyclopentanedione] | A | 90 (≈ 478 µM) | 3 | 3 | 3 | 3 | 1 | 1 | 1 | 1
8 | O=C1CCC(=O)C1c1ccc(Cl)cc1Cl [Cl Cl H H H, 2-(2',4'-Dichlorophenyl)-1,3-cyclopentanedione] | A |  | 1 |  | 1 |  | 1 |  | 1 | 
9 | O=C1CCC(=O)C1c1ccccc1Cl [Cl H H H H] | B |  | 3 |  | 2 |  | 1 |  | 3 | 
10 | Cc1ccccc1C1C(=O)c2ccccc2C1=O [Reference I Page 3, Compound 1, reference compound] |  | 200 (≈ 846 µM) |  | 2 |  | 1 |  | 0 |  | 1
11 | Cc1ccc(C)c(C2C(=O)c3ccccc3C2=O)c1 [Reference II Page 146, Compound 6, reference compound] |  | 500 (≈ 2000 µM) |  | 1 |  | 1 |  | 0 |  | 1
12 | Cc1ccc(C2C(=O)c3ccccc3C2=O)c(C)c1 [Reference II Page 146, Compound 9, reference compound] |  | 40 (≈ 160 µM) |  | 1 |  | 1 |  | 0 |  | 2
